Measured values reported in US12466800B2, “N-((1,2,3,5,6,7-hexahydro-S-indacen-4-yl)carbamoyl)-4, 5, 6, 7-tetrahydrobenzofuran-2-sulfonamide derivatives and related compounds as NLPR3 modulators for the treatment of multiple sclerosis (MS)” (Zomagen Biosciences Ltd, priority 2019, dated 2025).

system: IL-1b; assay: Mouse BMDM IL-1b Assay; type: cell-based; settings: Macrophage; mouse bone marrow derived macrophages (C57BL6); 200 ng/mL LPS 3 h, compound 30 min, 5 mM ATP 45 min; IL-1b ELISA of supernatant
Procedure: Example 20: Mouse BMDM IL-1b Assay
Mouse bone marrow cells from C57BL6 tibia and femur were culture in complete Isocov's Media supplemented with 20 ng/mL MCSF (BMDM media) at a density of 50 million cells/15 cm Petri dish. Fresh media was changed every 3 days, and bone marrow derived macrophages were collected, washed, and counted on day 7. Cells were seeded into 96 well plates at a density of 5×10^4 cells per well in 100 uL of BMDM media and cultured overnight. The cells were stimulated at 37° C. with 200 ng/mL Ultrapure LPS-B5 for 3 hours before pre-diluted compounds were added. 30 minutes after compound addition, 5 mM ATP was added for the secondary stimulation for 45 minutes. After stimulation, the plates were briefly spun down, and 50 uL of supernatant was harvested from each well. ELISA for mouse IL-1b was performed with 1:10 and 1:100 diluted supernatant using pre-coated kits. IL-1b concentrations were calculated based on pre-titrated standards, and compound inhibition IC50 is generated using the Levenberg Marquardt damped lease-square method.

SMILES | IC50 [nM]
CC(C)c1cccc(C(C)C)c1CC(=O)NS(=O)(=O)c1cc2c(o1)CCC(C)(C)C2O (stereo not drawn) [Compound 74, 2-(2,6-diisopropylphenyl)-N-((4-hydroxy-5,5-dimethyl-4,5,6,7-tetrahydrobenzofuran-2-yl)sulfonyl)acetamide] | 1000 to 10000
CC(C)c1cccc(C(C)C)c1CC(=O)NS(=O)(=O)c1cc2c(o1)CCC(C)(C)C2(C)O (stereo not drawn) [Compound 75, 2-(2,6-diisopropylphenyl)-N-((4-hydroxy-4,5,5-trimethyl-4,5,6,7-tetrahydrobenzofuran-2-yl)sulfonyl)acetamide] | 1000 to 10000
CC(C)c1cccc(C(C)C)c1CC(=O)NS(=O)(=O)c1cc2c(o1)CCC(C)(C)C2=O [Compound 76, 2-(2,6-diisopropylphenyl)-N-((5,5-dimethyl-4-oxo-4,5,6,7-tetrahydrobenzofuran-2-yl)sulfonyl)acetamide] | 1000 to 10000
CC(C)c1cc(Cl)cc(C(C)C)c1NC(=O)NS(=O)(=O)c1cc2c(o1)CCC/C2=N\O [Compound 78, (E)-N-((4-chloro-2,6-diisopropylphenyl)carbamoyl)-4-(hydroxyimino)-4,5,6,7-tetrahydrobenzofuran-2-sulfonamide] | 1000 to 10000
CC(C)c1cccc(C(C)C)c1NC(=O)NS(=O)(=O)c1cc2c(o1)CCC/C2=N\O [Compound 81, (E)-N-((2,6-diisopropylphenyl)carbamoyl)-4-(hydroxyimino)-4,5,6,7-tetrahydrobenzofuran-2-sulfonamide] | 1000 to 10000
CC(C)N1CCCc2oc(S(=O)(=O)NC(=O)Nc3c4c(cc5c3CCC5)CCC4)cc2C1=O [Compound 84, N-((1,2,3,5,6,7-hexahydro-s-indacen-4-yl)carbamoyl)-5-isopropyl-4-oxo-5,6,7,8-tetrahydro-4H-furo[3,2-c]azepine-2-sulfonamide] | 1000 to 10000
CC(C)c1cc(F)cc(C(C)C)c1NC(=O)NS(=O)(=O)c1cc2c(o1)CCC/C2=N/O [Compound 85, (Z)-N-((4-fluoro-2,6-diisopropylphenyl)carbamoyl)-4-(hydroxyimino)-4,5,6,7-tetrahydrobenzofuran-2-sulfonamide] | 1000 to 10000
O=C(Nc1c2c(c(Br)c3c1CCC3)CCC2)NS(=O)(=O)c1cc2c(o1)CCC/C2=N\O [Compound 95, (E)-N-((8-bromo-1,2,3,5,6,7-hexahydro-s-indacen-4-yl)carbamoyl)-4-(hydroxyimino)-4,5,6,7-tetrahydrobenzofuran-2-sulfonamide] | 100 to 1000
O=C(Nc1c2c(c(Cl)c3c1CCC3)CCC2)NS(=O)(=O)c1cc2c(o1)CCC/C2=N\O [Compound 96, (E)-N-((8-chloro-1,2,3,5,6,7-hexahydro-s-indacen-4-yl)carbamoyl)-4-(hydroxyimino)-4,5,6,7-tetrahydrobenzofuran-2-sulfonamide] | 100 to 1000
CC(C)c1ccc(F)c(C(C)C)c1NC(=O)NS(=O)(=O)c1cc2c(o1)CCC/C2=N/O [Compound 97, (Z)-N-((3-fluoro-2,6-diisopropylphenyl)carbamoyl)-4-(hydroxyimino)-4,5,6,7-tetrahydrobenzofuran-2-sulfonamide] | 100 to 1000
CC(C)c1ccc(F)c(C(C)C)c1NC(=O)NS(=O)(=O)c1cc2c(o1)CCC/C2=N\O [Compound 98, (E)-N-((3-fluoro-2,6-diisopropylphenyl)carbamoyl)-4-(hydroxyimino)-4,5,6,7-tetrahydrobenzofuran-2-sulfonamide] | 100 to 1000
Cc1c(S(=O)(=O)NC(=O)Nc2c3c(cc4c2CCC4)CCC3)oc2c1/C(=N\O)CCC2 [Compound 99, (Z)-N-((1,2,3,5,6,7-hexahydro-s-indacen-4-yl)carbamoyl)-4-(hydroxyimino)-3-methyl-4,5,6,7-tetrahydrobenzofuran-2-sulfonamide] | 100 to 1000
CC(C)c1c(F)c(Cl)c(F)c(C(C)C)c1NC(=O)NS(=O)(=O)c1cc2c(o1)CCC/C2=N/O [Compound 100, (Z)-N-((4-chloro-3,5-difluoro-2,6-diisopropylphenyl)carbamoyl)-4-(hydroxyimino)-4,5,6,7-tetrahydrobenzofuran-2-sulfonamide] | 1000 to 10000
CC(C)c1c(F)c(Cl)c(F)c(C(C)C)c1NC(=O)NS(=O)(=O)c1cc2c(o1)CCC/C2=N\O [Compound 101, (E)-N-((4-chloro-3,5-difluoro-2,6-diisopropylphenyl)carbamoyl)-4-(hydroxyimino)-4,5,6,7-tetrahydrobenzofuran-2-sulfonamide] | 100 to 1000
CC(C)c1c(F)c(Cl)c(F)c(C(C)C)c1NC(=O)NS(=O)(=O)c1cc2c(o1)CCCC2O (stereo not drawn) [Compound 102, N-((4-chloro-3,5-difluoro-2,6-diisopropylphenyl)carbamoyl)-4-hydroxy-4,5,6,7-tetrahydrobenzofuran-2-sulfonamide] | 100 to 1000

The next lines start with the values.

IC50 [nM] | SMILES
100 to 1000 | CC(C)c1cccc(C(C)C)c1NC(=O)NS(=O)(=O)c1cc2c(o1)CCCC2=NO [Compound 73, N-((2,6-diisopropylphenyl)carbamoyl)-4-(hydroxyimino)-4,5,6,7-tetrahydrobenzofuran-2-sulfonamide]
100 to 1000 | CC(C)c1cc(Cl)cc(C(C)C)c1NC(=O)NS(=O)(=O)c1cc2c(o1)CCC/C2=N/O [Compound 77, (Z)-N-((4-chloro-2,6-diisopropylphenyl)carbamoyl)-4-(hydroxyimino)-4,5,6,7-tetrahydrobenzofuran-2-sulfonamide]
100 to 1000 | CC(C)c1ccc(Cl)c(C(C)C)c1NC(=O)NS(=O)(=O)c1cc2c(o1)CCC/C2=N/O [Compound 79, (Z)-N-((3-chloro-2,6-diisopropylphenyl)carbamoyl)-4-(hydroxyimino)-4,5,6,7-tetrahydrobenzofuran-2-sulfonamide]
100 to 1000 | CC(C)c1ccc(Cl)c(C(C)C)c1NC(=O)NS(=O)(=O)c1cc2c(o1)CCC/C2=N\O [Compound 80, (E)-N-((3-chloro-2,6-diisopropylphenyl)carbamoyl)-4-(hydroxyimino)-4,5,6,7-tetrahydrobenzofuran-2-sulfonamide]
100 to 1000 | O=C(Nc1c2c(c(Br)c3c1CCC3)CCC2)NS(=O)(=O)c1cc2c(o1)CCC/C2=N/O [Compound 82, (Z)-N-((8-bromo-1,2,3,4,5,6,7-hexahydro-s-indacen-4-yl)carbamoyl)-4-(hydroxyimino)-4,5,6,7-tetrahydrobenzofuran-2-sulfonamide]
< 100 | O=C(Nc1c2c(c(Cl)c3c1CCC3)CCC2)NS(=O)(=O)c1cc2c(o1)CCC/C2=N/O [Compound 83, (Z)-N-((8-chloro-1,2,3,5,6,7-hexahydro-s-indacen-4-yl)carbamoyl)-4-(hydroxyimino)-4,5,6,7-tetrahydrobenzofuran-2-sulfonamide]
100 to 1000 | CC(C)c1cc(F)cc(C(C)C)c1NC(=O)NS(=O)(=O)c1cc2c(o1)CCC/C2=N\O [Compound 86, (E)-N-((4-fluoro-2,6-diisopropylphenyl)carbamoyl)-4-(hydroxyimino)-4,5,6,7-tetrahydrobenzofuran-2-sulfonamide]
< 100 | CN1CCCc2oc(S(=O)(=O)NC(=O)Nc3c4c(cc5c3CCC5)CCC4)cc2C1 [Compound 87, N-((1,2,3,5,6,7-hexahydro-s-indacen-4-yl)carbamoyl)-5-methyl-5,6,7,8-tetrahydro-4H-furo[3,2-c]azepine-2-sulfonamide]
< 100 | C=CCC1(O)c2cc(S(=O)(=O)NC(=O)Nc3c4c(cc5c3CCC5)CCC4)oc2CCC1(C)C (stereo not drawn) [Compound 88, 4-allyl-N-((1,2,3,5,6,7-hexahydro-s-indacen-4-yl)carbamoyl)-4-hydroxy-5,5-dimethyl-4,5,6,7-tetrahydrobenzofuran-2-sulfonamide]
< 100 | O=C(Nc1c2c(c(F)c3c1CCC3)CCC2)NS(=O)(=O)c1cc2c(o1)CCC/C2=N/O [Compound 89, (Z)-N-((8-fluoro-1,2,3,5,6,7-hexahydro-s-indacen-4-yl)carbamoyl)-4-(hydroxyimino)-4,5,6,7-tetrahydrobenzofuran-2-sulfonamide]
< 100 | O=C(Nc1c2c(c(F)c3c1CCC3)CCC2)NS(=O)(=O)c1cc2c(o1)CCC/C2=N\O [Compound 90, (E)-N-((8-fluoro-1,2,3,5,6,7-hexahydro-s-indacen-4-yl)carbamoyl)-4-(hydroxyimino)-4,5,6,7-tetrahydrobenzofuran-2-sulfonamide]
< 100 | Cc1c(S(=O)(=O)NC(=O)Nc2c3c(cc4c2CCC4)CCC3)oc2c1C(=O)CCC2 [Compound 91, N-((1,2,3,5,6,7-hexahydro-s-indacen-4-yl)carbamoyl)-3-methyl-4-oxo-4,5,6,7-tetrahydrobenzofuran-2-sulfonamide]
< 100 | Cc1c(S(=O)(=O)NC(=O)Nc2c3c(cc4c2CCC4)CCC3)oc2c1C(O)CCC2 (stereo not drawn) [Compound 92, N-((1,2,3,5,6,7-hexahydro-s-indacen-4-yl)carbamoyl)-4-hydroxy-3-methyl-4,5,6,7-tetrahydrobenzofuran-2-sulfonamide]
< 100 | Cc1c(S(=O)(=O)NC(=O)Nc2c3c(cc4c2CCC4)CCC3)oc2c1C(C)(O)CCC2 (stereo not drawn) [Compound 93, N-((1,2,3,5,6,7-hexahydro-s-indacen-4-yl)carbamoyl)-4-hydroxy-3,4-dimethyl-4,5,6,7-tetrahydrobenzofuran-2-sulfonamide]
100 to 1000 | CCOC(=O)CC1(C)CCCc2oc(S(=O)(=O)NC(=O)Nc3c4c(cc5c3CCC5)CCC4)c(C)c21 (stereo not drawn) [Compound 94, ethyl 2-(2-(N-((1,2,3,5,6,7-hexahydro-s-indacen-4-yl)carbamoyl)sulfamoyl)-3,4-dimethyl-4,5,6,7-tetrahydrobenzofuran-4-yl)acetate]
